Assay results: paper PMC6572184, “New γ-Halo-δ-lactones and δ-Hydroxy-γ-lactones with Strong Cytotoxic Activity” (Molecules, 2019)
Where two headings read alike, the source gives them in different places.

Columns and labels:
[1] = test system: Staphylococcus aureus ATCC 65389; assay: Bactericidal activity, CFU counting method; type: cell-based; details: S. aureus ATCC 65389; for Number of CFU/mL (× 10^7): 18 h at 37 °C, Control 21.36, Control with DMSO 20.85; for less CFU/mL (reduction of the number of CFU/mL): versus control
Procedure: (§1) The bacterial cultures: Escherichia coli ATCC 8739 and Staphylococcus aureus ATCC 65389 were grown on Luria–Bertani Agar for 18 h at 37 ^∘ C. The strain suspension was prepared in 0.85% saline, with an optical density equivalent to a 0.5 McFarland standard. Next, the following mixtures were prepared: 180 μ L of sterile enriched broth (BTL), 10 μ L of the bacterial suspension and 10 μ L of the tested compound (range 0.1–50 μ g/mL) solubilized in DMSO. As a negative control, only DMSO was added. As a sterility control, 180 μ L of BTL and 20 μ L saline were used. The microtiter plate was incubated at 37 ^∘ C for 18 h. The colony forming unit (CFU) method was used to evaluate the microbial population. The experiment was repeated three times. Gentamicin was used as the reference antibiotic.

[2] = test system: Escherichia coli ATCC 8739; assay: Bactericidal activity, CFU counting method; type: cell-based; details: E. coli ATCC 8739; 18 h at 37 °C; Control 9.47, Control with DMSO 9.30
Procedure: as §1

[3] = test system: AGS cell lines (human gastric adenocarcinoma); assay: MTT reduction cytotoxicity assay; type: cell-based; details: Homo sapiens
Procedure: (§2) Cell cultures: The L929 mouse fibroblasts and human gastric adenocarcinoma cell line AGS were used for in vitro cytotoxicity assays. The cells were maintained under standard conditions (37 ^∘ C, 5% CO 2 ) in 25 cm^2 tissue culture flasks in RPMI-1640 medium supplemented with 10% fetal bovine serum (FBS) and antibiotics: 100 U/mL penicillin and 100 μ g/mL streptomycin. The cell suspension containing 10 ^8 cells in 1 mL, was obtained by treatment of confluent monolayers with 0.25% trypsin solution, washed and subcultured. Cell cultures were supplemented with medium to maintain them in log phase growth. The viability of the cells was assessed by exclusion of trypan blue dye.
(§3) Measurements of cellular metabolic activity and global growth inhibition: L929 cells were seeded into 96-well plates (2 × 10 ^5 cells/well) for 24 h, at 37 ^∘ C, 5% CO2 . Tested compounds 5a–c, 6a–c, 7a–c, 8a–c, 9b,c, 10b,c, 12a and 13a were diluted serially in RPMI-1640 medium in concentrations of 50, 20, 10, 5, 0.5 and 0.1 μ g/mL, added to the cells (100 μ L/well), and incubated under standard conditions for 24 h. The potential harmful effect of lactones on L929 and AGS cells was assessed by the ability of the cells to reduce 3-(4,5-dimethylthiazol-2-yl)-2,5-diphenyltetrazolium bromide (MTT) to formazan. The solution of MTT (5 mg/mL in PBS), was added to each well and the plates were incubated for 4h at 37 ^∘ C. Formazan crystals were dissolved with acidic isopropanol (0.1 M HCl in absolute isopropanol) and the plates were read in a plate reader (Victor 2) at 570 nm. The percentage of MTT reduction was calculated by comparing the absorbance of treated cells to that of untreated control cells. Results are expressed as the mean percentage of viable cells ± standard deviation (SD) of four independent experiments. Statistical significance was accepted at a p-value < 0.05.

[4] = MTT reduction cytotoxicity assay; type: cell-based, human; details: human, AGS cells (human gastric adenocarcinoma), 24 h, read-out: mean percentage of viable cells ± SD
Procedure: as §2, §3

[5] = MTT reduction cytotoxicity assay; type: cell-based, mouse; details: mouse, L929 cells (mouse fibroblasts), read-out: mean percentage of viable cells ± SD
Procedure: as §2, §3

[6] = test system: L929 cell lines (mouse fibroblasts); assay: MTT reduction cytotoxicity assay; type: cell-based; details: 24 h
Procedure: as §2, §3

Row | melting point [°C] | SMILES | Number of CFU/mL (× 10^7) [1] | less CFU/mL (reduction of the number of CFU/mL) [1] | Number of CFU/mL (× 10^7) [2] | IC50 [3] [nM] | viability at 24 h, 0.1 μg/mL [4] [%] | viability at 24 h, 0.5 μg/mL [4] [%] | viability at 24 h, 5 μg/mL [4] [%] | viability at 24 h, 10 μg/mL [4] [%] | viability at 24 h, 20 μg/mL [4] [%] | viability at 24 h, 50 μg/mL [4] [%] | viability at 24 h, 0.1 μg/mL [5] [%] | viability at 24 h, 0.5 μg/mL [5] [%] | viability at 24 h, 5 μg/mL [5] [%] | viability at 24 h, 10 μg/mL [5] [%] | viability at 24 h, 20 μg/mL [5] [%] | viability at 24 h, 50 μg/mL [5] [%] | mean percentage of viable cells ± SD ([6]; 5 μg/mL) [%] | mean percentage of viable cells ± SD ([6]; 10 μg/mL) [%] | bactericidal activity (in words) [1]
1 | 86 to 87 | C[C@@H]1CC(=O)O[C@@H]1C(I)c1ccccc1 (relative stereo) [11b, Cis-dihydro-5-(iodo(phenyl)methyl)-4-methylfuran-2(3H)-one] | – | – | – | – | – | – | – | – | – | – | – | – | – | – | – | – | – | – | –
2 | 86 to 87 | C[C@@H]1CC(=O)O[C@H]1C(O)c1ccccc1 (relative stereo) [12b, Trans-dihydro-5-(hydroxy(phenyl)methyl)-4-methylfuran-2(3H)-one] | – | – | – | – | – | – | – | – | – | – | – | – | – | – | – | – | – | – | –
3 | 89 to 91 | C[C@@H]1CC(=O)O[C@@H]1C(O)c1ccccc1 (relative stereo) [13b, Cis-dihydro-5-(hydroxy(phenyl)methyl)-4-methylfuran-2(3H)-one] | – | – | – | – | – | – | – | – | – | – | – | – | – | – | – | – | – | – | –
4 | 118 to 119 | C[C@@H]1CC(=O)O[C@@H]1C(O)c1ccc(F)cc1 (relative stereo) [13c, Cis-5-((4-fluorophenyl)(hydroxy)methyl)-dihydro-4-methylfuran-2(3H)-one] | – | – | – | – | – | – | – | – | – | – | – | – | – | – | – | – | – | – | –
5 | 123 to 124 | C[C@@H]1CC(=O)O[C@@H]1[C@@H](O)c1cccc2ccccc12 [13a, Cis-dihydro-5-((S)-hydroxy(naphthalen-1-yl)methyl)-4-methylfuran-2(3H)-one] | 9.12 × 10^7 CFU/mL | – | 6.02 × 10^7 CFU/mL | 3700 | 44 ± 0.12 | 39 ± 0.09 | 29 ± 0.05 | 18 ± 0.12 | 10 ± 0.1 | 8 ± 0.08 | 16 ± 0.09 | 12 ± 0.02 | 9 ± 0.03 | 6 ± 0.06 | 5 ± 0.12 | 1 ± 0.07 | – | – | –
6 | 118 to 119 | C[C@@H]1CC(=O)O[C@@H]1C(I)c1ccc(F)cc1 (relative stereo) [11c, Cis-5-((4-fluorophenyl)iodomethyl)-dihydro-4-methylfuran-2(3H)-one] | – | – | – | – | – | – | – | – | – | – | – | – | – | – | – | – | – | – | –
7 | 118 to 119 | C[C@@H]1CC(=O)O[C@H]1C(O)c1ccc(F)cc1 (relative stereo) [12c, Trans-5-((4-fluorophenyl)(hydroxy)methyl)-dihydro-4-methylfuran-2(3H)-one] | – | – | – | – | – | – | – | – | – | – | – | – | – | – | – | – | – | – | –

Continued, compound first:

Row | SMILES | melting point [°C] | Number of CFU/mL (× 10^7) [1] | less CFU/mL (reduction of the number of CFU/mL) [1] | Number of CFU/mL (× 10^7) [2] | IC50 [3] [nM] | viability at 24 h, 0.1 μg/mL [4] [%] | viability at 24 h, 0.5 μg/mL [4] [%] | viability at 24 h, 5 μg/mL [4] [%] | viability at 24 h, 10 μg/mL [4] [%] | viability at 24 h, 20 μg/mL [4] [%] | viability at 24 h, 50 μg/mL [4] [%] | viability at 24 h, 0.1 μg/mL [5] [%] | viability at 24 h, 0.5 μg/mL [5] [%] | viability at 24 h, 5 μg/mL [5] [%] | viability at 24 h, 10 μg/mL [5] [%] | viability at 24 h, 20 μg/mL [5] [%] | viability at 24 h, 50 μg/mL [5] [%] | mean percentage of viable cells ± SD ([6]; 5 μg/mL) [%] | mean percentage of viable cells ± SD ([6]; 10 μg/mL) [%] | bactericidal activity (in words) [1]
8 | CC1CC(=O)OC(c2cccc3ccccc23)C1Br (stereo not drawn) [7a, Trans,trans-5-bromo-tetrahydro-4-methyl-6-(naphthalen-1-yl)pyran-2-one] | 197 to 198 | 4.63 × 10^7 CFU/mL | 78–83% | 5.21 × 10^7 CFU/mL | 2100 | 39 ± 0.02 | 26 ± 0.05 | 25 ± 0.1 | 21 ± 0.03 | 20 ± 0.06 | 8 ± 0.03 | 25 ± 0.02 | 18 ± 0.12 | 12 ± 0.02 | 6 ± 0.07 | 2 ± 0.03 | 1 ± 0.12 | – | – | –
9 | CC1CC(=O)OC(c2ccccc2)C1Cl (stereo not drawn) [5b, Trans,trans-5-chloro-tetrahydro-4-methyl-6-phenylpyran-2-one] | 105 to 106.5 | 7.63 × 10^7 CFU/mL | – | 4.06 × 10^7 CFU/mL | 2300 | 35 ± 0.06 | 20 ± 0.09 | 16 ± 0.06 | 14 ± 0.12 | 11 ± 0.07 | 8 ± 0.09 | 20 ± 0.08 | 18 ± 0.15 | – | – | 4 ± 0.02 | 1 ± 0.03 | 12 ± 0.05 | 7 ± 0.06 | –
10 | C[C@@H]1CC(=O)O[C@H](c2cccc3ccccc23)[C@H]1Cl (relative stereo) [5a, Trans,trans-5-chloro-tetrahydro-4-methyl-6-(naphthalen-1-yl)pyran-2-one] | 157 to 158 | 2.74 × 10^7 CFU/mL | 87% | 6.41 × 10^7 CFU/mL | 1900 | 54 ± 0.07 | 48 ± 0.05 | 43 ± 0.09 | 27 ± 0.1 | 18 ± 0.08 | 15 ± 0.01 | 17 ± 0.09 | 15 ± 0.02 | 10 ± 0.03 | 8 ± 0.07 | 5 ± 0.06 | 1 ± 0.01 | – | – | –
11 | CC1CC(=O)OC(c2ccccc2)C1Br (stereo not drawn) [7b, Trans,trans-5-bromo-tetrahydro-4-methyl-6-phenylpyran-2-one] | 111 to 112 | 10.96 × 10^7 CFU/mL | – | 8.63 × 10^7 CFU/mL | 3600 | 40 ± 0.1 | 25 ± 0.1 | 23 ± 0.02 | 20 ± 0.06 | 14 ± 0.03 | 10 ± 0.06 | 25 ± 0.03 | 18 ± 0.08 | 13 ± 0.12 | 10 ± 0.05 | 5 ± 0.15 | 2 ± 0.09 | – | – | –
12 | C[C@@H]1CC(=O)O[C@H]1[C@@H](O)c1cccc2ccccc12 (mixture of isomers) [12a, Trans-dihydro-5-((S)-hydroxy(naphthalen-1-yl)methyl)-4-methylfuran-2(3H)-one] | – | 21.15 × 10^7 CFU/mL | – | 9.43 × 10^7 CFU/mL | 4300 | 39 ± 0.09 | 26 ± 0.05 | 22 ± 0.09 | 18 ± 0.05 | 13 ± 0.08 | 9 ± 0.1 | 19 ± 0.15 | 15 ± 0.05 | 10 ± 0.02 | 8 ± 0.06 | 3 ± 0.03 | 2 ± 0.06 | – | – | did not show bactericidal activity
